# Test results as given in patent US20230028414A1, “DOSING REGIMEN OF KRAS G12C INHIBITOR” (AMGEN INC., priority 2019, published 2023).
# Assays:
# KRAS p.G12C tumors = assay: Preclinical anti-tumor efficacy; type: in vivo; settings: immune-competent mice
# Source text: KRAS is the most frequently mutated oncogene in human cancer and encodes a key signaling protein in tumors.
# [1] = Phase 1 safety and treatment exposure, all enrolled patients; type: in vivo
# Source text: A subject undergoing a therapy is monitored for adverse events (AE) during the course of the therapy. A treatment related AE is an AE that is related to the treatment drug. A treatment emergent AE is one that a subject develops undergoing the treatment that was not present prior to start of therapy. In some cases, the treatment emergent AE is not or suspected not to be related to the treatment itself. AEs are characterized as one of five grades—grade 1 is a mile AE; grade 2 is a moderate AE; grade 3 is a severe AE; grade 4 is a life-threatening or disabling AE; and grade 5 is death related to AE.
# The grading of AEs is based on the guidelines provided in the CTCAE version 5.0. AEs for DLT assessment:
# Hematological toxicity: Febrile neutropenia; Neutropenic infection; Grade 4 neutropenia; Grade≥3 thrombocytopenia for>7 days; Grade 3 thrombocytopenia with grade≥2 bleeding; Grade 4 thrombocytopenia; Grade 4 Anemia Non-hematological toxicity Grade≥4, vomiting or diarrhea; Grade 3 diarrhea or grade 3 vomiting lasting more than 3 days despite optimal medical support; Grade≥3 nausea for 3 days or more despite optimal medical support; Any other grade≥3 AE
# [2] = Phase 1 pharmacokinetics of Compound A at 960 mg once daily; type: in vivo, human; settings: patients
# [3] = tested on: other tumor types (appendiceal cancer, unknown primary cancer); assay: Phase 1 tumor response by RECIST 1.1, patients with other tumor types; type: in vivo, human; settings: 2 evaluable patients with appendiceal cancer
# Source text: A complete response (CR) is disappearance of all target lesions and any pathological lymph nodes have a reduction in short axis to less than 10 mm. A partial response (PR) is at least a 30% decrease in the sum of diameters of target lesions, taking as reference the baseline sum diameters. A progressive disease is at least a 20% increase in the sum of diameters of target lesions, taking as reference the smallest sum on study (including the baseline sum if that is the smallest on study), and there must be an absolute increase of at least 5 mm in addition to the relative increase of 20%. A stable disease is neither sufficient shrinkage to qualify for PR nor sufficient increase to qualify for PD. […] The tumor size can be measured by radiographic scan.
# FIG. 2. […] Target lesions are measurable lesions defined by RECIST 1.1. Non-measurable lesions, as defined by RECIST 1.1, are considered non-target lesions. A PR is defined as at least a 30% decrease in the sum of the diameters of target lesions using the baseline sum of diameters as a reference. […]
# As of the data cutoff of Jul. […] The tumor types of two patients were re-classified after the cutoff: 1 patient who was initially recorded as having NSCLC had unknown primary cancer, and 1 patient who was initially recorded as having other tumor types had NSCLC. […]
# Tumor response was evaluated using RECIST 1.1. […]
# [4] = 76 enrolled patients, all doses
compound,measurement,setting,value
"C=CC(=O)N1CCN(c2nc(=O)n(-c3c(C)ccnc3C(C)C)c3nc(-c4c(O)cccc4F)c(F)cc23)[C@@H](C)C1 [Compound A, 4-((S)-4-acryloyl-2-methylpiperazin-1-yl)-6-fluoro-7-(2-fluoro-6-hydroxyphenyl)-1-(2-isopropyl-4-methylpyridin-3-yl)pyrido[2,3-d]pyrimidin-2(1H)-one]",anti-tumor effect in combination with immune checkpoint inhibition,KRAS p.G12C tumors,durable cures
same,deaths related to treatment,[1]; 7 deaths among 76 enrolled patients,none
same,patients with treatment-related grade 3 AEs,[1]; [4],7 patients
same,"patients with treatment-related grade 3 AEs, percent",[1]; [4],9.2%
same,tolerability,[1]; consistent across all doses,well tolerated with mild treatment-related toxicities
same,treatment-related AEs higher than grade 3 or cumulative toxicities,"[1]; extended treatment, all doses",no treatment-related AEs higher than grade 3 or cumulative toxicities were observed
same,24-hour area under the curve,[2],65300 ng·h/mL
same,time of peak exposure after administration,[2],around 2 hours
same,tumor response,[3],PR (unconfirmed) and SD
